Patent US9145449B2, “STIP1 polypeptides and uses thereof” (Chang Gung Memorial Hospital, Linkou Branch, priority 2013, dated 2015)
Where a SMILES comes first, the peptide text is derived from it. Where no end group is shown, it is not given here.

What was measured:
ovarian cancer cells = assay: BrdU proliferation assay (FIG. 7A, 7C, 7E); assay type: cell-based, human; conditions: for rhSTIP1-increased BrdU incorporation: with inhibitor, antibody or siRNA
Experimental: (§1) The BrdU assay and Ki67 staining procedures have been reported previously (Tsai et al 2012, Wang et al 2010). For BrdU assays, cancer cells were seeded at a density of 10^4 cells/well in a 96-well plate overnight, and cultured in serum-free medium for 24 h. Cancer cells were treated with 0.4 μM of rhSTIP1 in the presence of BrdU for 24 h. DNA synthesis activity was measured using BrdU ELISA kit (Roche Applied Science). For immunocytochemistry studies of Ki-67, MDAH2774 cells were cultured on Lab-Tek II chamber slides (Nalge Nunc International, Denmark) overnight. After serum starvation or RNAi transfection for 72 h, cancer cells were treated with 0.4 μM of STIP1 with or without an STIP1 antibody for another 24 h. The slides were fixed with 99.9% of ethanol, rehydrated with PBS, treated with 3% of hydrogen peroxide for 20 min, permeabilized with 0.1% Triton X-100 (Sigma) for 15 min, and stained with anti-Ki67 antibody (Thermo Fisher Scientific, Rockford, Ill.).
(§2) BrdU is an analogue of thymidine which can replace thymidine during DNA replication, and Ki67 is a nuclear protein that is associated with cell proliferation. BrdU incorporation assay and immunocytochemistry for endogenous Ki67 were used as an index for cell proliferation. Treatment with rhSTIP1 increased the BrdU incorporation rate and Ki67 staining of ovarian cancer cells (FIG. 7A to FIG. 7F). These activities were reduced by treatment with an ALK2/ALK3 inhibitor (LDN193189) and an ERK inhibitor (PD98059) (FIGS. 7A and 7B), an STIP1 antibody (FIGS. 7C and 7D), and ALK2 siRNA and STIP1 siRNA (FIGS. 7E and 7F).

MDAH2774 cells = assay: Ki67 immunocytochemistry (FIG. 7B, 7D, 7F); assay type: cell-based, human; conditions: for rhSTIP1-increased Ki67 staining: with inhibitor, antibody or siRNA
Experimental: as §1, §2

SMAD1/5 phosphorylation = SMAD1/5 phosphorylation western blot / antibody neutralization assay (FIG. 6A, 6B); assay type: cell-based, human; conditions: ES2, SKOV3, TOV21G, TOV112D, BR, BG1, RL95-2, CL1-0, NPC-BM1 cell lines
Experimental: Cell lysates were prepared with a RIPA buffer (150 mM NaCl, 20 mM Tris-Cl pH7.5, 1% Triton X-100, 1% NP40, 0.1% SDS, 0.5% deoxycholate) containing freshly added proteinase and phosphatase inhibitors (Bionovas, Toronto). Protein concentration was measured using the Bradford method. Fifty μg of each sample was electrophoresed in 10% SDS-polyacrylamide gels, and transferred to nitrocellulose membranes. STIP1 antibody was commercially available from Abnova Biotechnology and Santa Cruz Biotechnology, Santa Cruz, Calif., actin was commercially available from Sigma, the corresponding horseradish peroxidase-conjugated antibody was commercially available from Santa Cruz Biotechnology, enhanced chemiluminescence reagent was commercially available from Millipore Inc. (Millipore, Billerica, Mass.). The signal intensity of autoradiogram was quantified using the UN-SCAN-IT software (Silk Scientific, Orem, Utah), and relative intensity of each sample was normalized by the corresponding actin intensity. For antibody neutralization assay, cancer cells were cultured in serum-free medium for 24 h, and treated with rhSTIP1 for another 24 h in the presence or absence of the STIP1 monoclonal antibody, which were pre-incubated at 37° C. for 1 h. Endogenous phospho-SMAD1/5 was detected with western blot analysis. […]

[1] = system: ovarian cancer cells (MDAH2774); assay: MTT cell viability of transfected MDAH2774 cells; assay type: cell-based, human; conditions: for Normalized O.D / Original O.D / cancer cell viability (in words, FIG. 10B and Table 2): MTT, MDAH2774; for Normalized O.D / Original O.D: peptide 200 uM; for cancer cell viability (in words, FIG. 10B and Table 2): transfected peptides
Source text: Human ovarian cancer cell lines TOV112D, TOV21G, SKOV3, MDAH2774, ES2, MDAH2774, BG1; human endometrial cancer cell line RL95-2, human pancreatic cancer cell line BxPC3, breast cancer cell line (MCF7) and colon cancer cell line (HT29) were obtained from ATCC (Rockville, Md., USA). Lung cancer cell line CL1-0 and nasopharyngeal carcinoma cell line NPC-BM1 were obtained from Dr. C C Wu (Department of Medical Biotechnology and Laboratory Science, Chang-Gung University, Taoyuan, Taiwan), Wu et al. Mol. Cell Proteomics 9(6):11100 (20101). Mouse ovarian cancer cell line MOSEC was obtained from Dr. C L Chang (Department of Obstetrics and Gynecology, Mackay Memorial Hospital, Taipei, Taiwan), Chang et al. Cancer Research 67:10047 (2007). TOV112D, TOV21G, SKOV3, MDAH2774, ES2 and RL95-2 were cultured in Dulbecco's modified Eagle's medium/F-12 supplemented with 10% fetal bovine serum and antibiotics at 37° C. in 5% CO2 humidified atmosphere. BxPC3, CL1-0, NPC-BM1 and MOSEC cells were cultured in RPMI 1640 media supplemented with 10% fetal bovine serum.
Cancer cells were transfected with an STIP1 antibody in PLUSin reagent (Polyplus-transfection Inc., NY, USA) according to manufacturer's protocol. In summary, 2×10^3˜6×10^3 cancer cells were seeded in a 96-well plate overnight, followed by PBS rinse and the addition of 180 μl of OPTI-MEM. 0.6 μg of mouse STIP1 antibody were diluted in 20 mM HEPES, mixed with 1.2 μl of PLUSin by vortexing, followed by incubation at room temperature for 15 min. The antibody/PLUSin mixture was added to the cancer cells by gentle swirling the plate. The STIP1 antibody and the control IgG used in the working examples described herein are commercially available from Abnova Biotechnology Inc., (Taipei City, Taiwan). The STIP1 antibody in the working examples described herein can be used to detect recombinant full length STIP1 (SEQ ID NO:3).
1˜2×10^4 Cancer cells were plated per well in 96-well plates overnight, then transfected with a mouse STIP1 antibody (commercially available from Abnova Biotechnology Inc.) for 48 h before they were assessed. The inhibitory effect of the STIP1 antibody on the cancer cells was measured by the MTT [3-(4,5-Dimethylthiazol-2-yl)-2,5-Diphenyltetrazolium Bromide]method (Sigma St. Louis, Mo.). The optical density was measured at 570 nm using an automated scanning multiwell spectrophotometer (Wallac Victor2 spectrophotometer; PerkinElmer, Boston, Mass., USA).
Given the neutralizing effect of STIP1 polypeptide 520-543 (SEQ ID NO:1) on STIP1 antibody, co-transfecting STIP1 antibody and STIP1 polypeptide 520-543 in cancer cells may reduce the suppression effect of STIP1 antibody. FIG. 10A and Table 1 show cell viability of ovarian cancer cells (MDAH2774) transfected with STIP1 antibody only (positive control) and STIP1 antibody with various concentrations of STIP1 polypeptide 520-543. Cell viability was evaluated using MTT assays. […] For example, the cell viability for STIP1 antibody was 78.81% (Table 1), the cell viability for 25 uM of STIP1 polypeptide 520-543 was 102% (Table 2), and the cell viability for STIP1 antibody and […] of STIP1 polypeptide 520-543 was 56.38% (Table 1). Similarly, the cell viability for 200 uM of STIP1 polypeptide 520-543 was 28.64% (Table 2), and the cell viability for STIP1 antibody and […] of STIP1 polypeptide 520-543 was 27.67% (Table 1).

[2] = system: MDAH2774, ARK2, NPC-BM1, SAS, Colon 205, CL 1-0, BxPC3, HepG2 and MCF7 cells; assay: MTT assay with cell permeable peptide, cancer cell line panel (FIG. 13B); assay type: cell-based; conditions: all of the tested cancer cells
Experimental: (§3) Cell permeable STIP1 polypeptide 520-543 was added to the following cancer cell lines: MDAH2774 (ovarian cancer); ARK2 (endometrial cancer); NPC-BM1 (nasopharyngeal cancer); SAS (oral cancer); Colon 205 (colon cancer); CL 1-0 (lung cancer); BxPC3 (pancreatic cancer); HepG2 (liver cancer) and MCF7 (breast cancer) cells. Cancer cell viability was assessed using the MTT assay and cell death was assessed using LDH assay.

[3] = system: MDAH2774, ARK2, NPC-BM1, SAS, Colon 205, CL 1-0, BxPC3, HepG2 and MCF7 cells; assay: LDH assay with cell permeable peptide, cancer cell line panel (FIG. 13A); assay type: cell-based; conditions: all of the tested cancer cells
Experimental: as §3

| Compound | rhSTIP1-increased BrdU incorporation (ovarian cancer cells) | rhSTIP1-increased Ki67 staining (MDAH2774 cells) | Normalized O.D [1] | Original O.D [1] | cancer cell viability (in words, FIG. 10B and Table 2) [1] | further results |
| --- | --- | --- | --- | --- | --- | --- |
| c1ccc2c(-c3cnn4cc(-c5ccc(N6CCNCC6)cc5)cnc34)ccnc2c1 [LDN193189] | reduced | reduced |  |  |  |  |
| rhSTIP1: recombinant human STIP1 protein (a.a. sequence number 1 to 543) |  |  |  |  |  | SMAD1/5 phosphorylation (SMAD1/5 phosphorylation): stimulates SMAD1/5 phosphorylation; BrdU incorporation rate (ovarian cancer cells; treatment with rhSTIP1 (0.4 μM, 24 h)): increased; Ki67 staining (MDAH2774 cells; treatment with rhSTIP1): increased |
| CSCC[C@H](NC(=O)[C@H](CCSC)NC(=O)[C@H](CS)NC(=O)[C@H](CCCNC(=N)N)NC(=O)[C@H](CCC(N)=O)NC(=O)[C@H](Cc1ccc(O)cc1)NC(=O)CNC(=O)[C@H](CC(=O)O)NC(=O)[C@H](C)NC(=O)[C@H](C)NC(=O)[C@H](CCC(=O)O)NC(=O)[C@H](CCCCN)NC(=O)[C@H](CS)NC(=O)[C@H](CO)NC(=O)[C@H](CO)NC(=O)[C@@H](N)CC(=O)O)C(=O)N[C@@H](C)C(=O)N[C@@H](CCC(N)=O)C(=O)N[C@@H](Cc1ccc(O)cc1)C(=O)N[C@@H](CC(N)=O)C(=O)N[C@@H](CCCNC(=N)N)C(=O)N[C@@H](Cc1c[nH]cn1)C(=O)N[C@@H](CC(=O)O)C(=O)N[C@@H](CO)C(=O)N1CCC[C@H]1C(=O)O [Peptide 458] (H-DSSCKEAADGYQRCMMAQYNRHDSP-OH; N-terminus and C-terminus assumed) |  |  | 0.83 | 0.13 | did not significantly suppress cancer cell viability |  |
| cell permeable STIP1 polypeptide 520-543: STIP1 polypeptide 520-543 having eight D-arginine residues; detected with anti-myc antibody (EHLKNPVIAQKIQKLMDVGLIAIR; also: octa-D-arginine attached, end not given here, myc tag; UniProt P31948 520-543, looked up, fragment) |  |  |  |  |  | cell proliferation (MTT activity) [2]: inhibits cell proliferation; cell death (LDH activity) [3]: induce cell death |
| COc1cccc(-c2cc(=O)c3ccccc3o2)c1N [PD98059] | reduced | reduced |  |  |  | cell proliferation (BrdU incorporation, FIG. 7A) (ovarian cancer cells; inhibition of ERK activity): strongly inhibited cell proliferation |
| VQQIMSDPAMRLILEQMQKDPQALS [Peptide 495] |  |  | 0.97 | 0.14 | did not significantly suppress cancer cell viability | Cell viability (%) ([1]; human, 48 h, 200 uM): 96.94% |
